Values after ≈ are worked out from the molar mass of the structure shown.
Legend:
[1] = test system: A549; assay: In vitro cytotoxicity against human lung carcinoma (A-549) cell line; format: functional; conditions: read-out: ED50 (the source's name)
[2] = test system: KB; assay: In vitro cytotoxicity against human epidermoid carcinoma of the nasopharynx (KB) cell line; format: functional; conditions: read-out: ED50 (the source's name)
[3] = test system: SK-MEL-2; assay: In vitro cytotoxicity against human melanoma (SKMEL-2) cell line; format: functional; conditions: for EC50: read-out: ED50 (the source's name)
[4] = test system: HCT-8; assay: In vitro cytotoxicity against human ileocecal carcinoma (HCT-8) cell line; format: functional; conditions: for EC50: read-out: ED50 (the source's name)
[5] = test system: KB; assay: In vitro cytotoxicity against human P-glycoprotein-expressing epidermoid carcinoma of the nasopharynx (KB-VIN) cell line; format: functional; conditions: read-out: ED50 (the source's name)
[6] = test system: 1A9; assay: In vitro cytotoxicity against human ovarian cancer (IA9) cell line; format: functional; conditions: read-out: ED50 (the source's name)
[7] = test system: HOS; assay: In vitro cytotoxicity against human osteosarcoma (Hos) cell line; format: functional; conditions: for EC50: read-out: ED50 (the source's name)
[8] = test system: MCF7; assay: In vitro cytotoxicity against human breast cancer (MCF-7) cell line; format: functional; conditions: read-out: ED50 (the source's name)
[9] = test system: U-87 MG; assay: (§1) In vitro cytotoxicity against human glioblastoma (U-87-MG) cell line; format: functional, U-87MG ATCC; conditions: read-out: ED50 (the source's name)
[10] = test system: U-87 MG; assay: as §1; format: functional, U-87MG ATCC; design: concentration or dose not given beside the values

SMILES	EC50 [1]	EC50 [2]	EC50 [3]	EC50 [4]	EC50 [5]	EC50 [6]	EC50 [7]	EC50 [8]	EC50 [9]	Inhibition [3]	Inhibition [4]	Inhibition [10]	Inhibition [7]
COc1cccc(/C=C/C(=O)c2ccccc2N)c1	1.2 µg/mL (≈ 4.74 µM)	0.65 µg/mL (≈ 2.57 µM)	3.5 µg/mL (≈ 13.8 µM)	4.5 µg/mL (≈ 17.8 µM)	0.3 µg/mL (≈ 1.18 µM)	0.8 µg/mL (≈ 3.16 µM)	2 µg/mL (≈ 7.9 µM)	1.3 µg/mL (≈ 5.13 µM)	5.1 µg/mL (≈ 20.1 µM)				
COc1cccc(/C=C/C(=O)c2ccc3c(c2)OCO3)c1	18.5 µg/mL (≈ 65.5 µM)	18.7 µg/mL (≈ 66.2 µM)	> 20 µg/mL	> 20 µg/mL	14 µg/mL (≈ 49.6 µM)	15 µg/mL (≈ 53.1 µM)	> 20 µg/mL	19 µg/mL (≈ 67.3 µM)	> 20 µg/mL	42%	28%	20%	42%
Nc1cc2c(cc1C(=O)/C=C/c1ccc(F)cc1)OCO2	4.2 µg/mL (≈ 14.7 µM)	3.1 µg/mL (≈ 10.9 µM)	9 µg/mL (≈ 31.5 µM)	6.5 µg/mL (≈ 22.8 µM)	2.2 µg/mL (≈ 7.71 µM)	3.5 µg/mL (≈ 12.3 µM)	6 µg/mL (≈ 21 µM)	5.1 µg/mL (≈ 17.9 µM)	> 10 µg/mL			49%	
Cc1ccccc1C1OC1C(=O)c1ccccc1N (stereo unspecified)	17 µg/mL (≈ 67.1 µM)	15.5 µg/mL (≈ 61.2 µM)	> 20 µg/mL	> 20 µg/mL	11.5 µg/mL (≈ 45.4 µM)	12.5 µg/mL (≈ 49.3 µM)	> 20 µg/mL	19.5 µg/mL (≈ 77 µM)	> 20 µg/mL	45%	41%	28%	47%
Nc1cc2c(cc1C(=O)C1OC1c1ccccc1F)OCO2 (stereo unspecified)	3.5 µg/mL (≈ 11.6 µM)	15.4 µg/mL (≈ 51.1 µM)	9.5 µg/mL (≈ 31.5 µM)	4.8 µg/mL (≈ 15.9 µM)	2.3 µg/mL (≈ 7.63 µM)	1.85 µg/mL (≈ 6.14 µM)	4 µg/mL (≈ 13.3 µM)	2.3 µg/mL (≈ 7.63 µM)	9 µg/mL (≈ 29.9 µM)				
Nc1cc2c(cc1C(=O)/C=C/c1ccccc1F)OCO2	2 µg/mL (≈ 7.01 µM)	1.5 µg/mL (≈ 5.26 µM)	6.5 µg/mL (≈ 22.8 µM)	3 µg/mL (≈ 10.5 µM)	0.95 µg/mL (≈ 3.33 µM)	1.5 µg/mL (≈ 5.26 µM)	4 µg/mL (≈ 14 µM)	2.6 µg/mL (≈ 9.11 µM)	7 µg/mL (≈ 24.5 µM)				
COc1cccc(C2OC2C(=O)c2cc3c(cc2N)OCO3)c1 (stereo unspecified)	2 µg/mL (≈ 6.38 µM)	2 µg/mL (≈ 6.38 µM)	9.8 µg/mL (≈ 31.3 µM)	2.1 µg/mL (≈ 6.7 µM)	1.3 µg/mL (≈ 4.15 µM)	1.2 µg/mL (≈ 3.83 µM)	4.5 µg/mL (≈ 14.4 µM)	1.1 µg/mL (≈ 3.51 µM)	5 µg/mL (≈ 16 µM)				
Cc1ccccc1/C=C/C(=O)c1ccccc1N	3.5 µg/mL (≈ 14.7 µM)	1.35 µg/mL (≈ 5.69 µM)	5.1 µg/mL (≈ 21.5 µM)	9.8 µg/mL (≈ 41.3 µM)	1.25 µg/mL (≈ 5.27 µM)	1.2 µg/mL (≈ 5.06 µM)	4 µg/mL (≈ 16.9 µM)	6.1 µg/mL (≈ 25.7 µM)	> 10 µg/mL			34%	
COc1cccc(/C=C/C(=O)c2cc3c(cc2N)OCO3)c1	0.45 µg/mL (≈ 1.51 µM)	0.52 µg/mL (≈ 1.75 µM)	2.3 µg/mL (≈ 7.74 µM)	1.5 µg/mL (≈ 5.05 µM)	0.3 µg/mL (≈ 1.01 µM)	0.35 µg/mL (≈ 1.18 µM)	2.4 µg/mL (≈ 8.07 µM)	0.48 µg/mL (≈ 1.61 µM)	8 µg/mL (≈ 26.9 µM)				

Reference: ChEMBL document CHEMBL1133323, “Antitumor agents. Part 202: novel 2'-amino chalcones: design, synthesis and biological evaluation” (2000)
